Source: US12070464B2, “Methods of treating myeloproliferative disorders” (priority 2019, dated 2024)
Read-outs that look alike come from different tables or passages of the source.

Columns and labels:
[1] = tested on: patients with refractory or intolerant advanced myelofibrosis; test: Phase 2 study, Arms 1 and 2 together (monotherapy or add-on to ruxolitinib); format: in vivo, human
Protocol: A Phase 2 study of Compound 1 in subjects with myelofibrosis (MF) was conducted. Three treatment arms were studied:
(§1) Arm 1=monotherapy with Compound 1 in patients (pts) who are no longer on Rux and are with refractory, intolerant, or ineligible. In this arm patients were further stratified based on transfusion dependence status [transfusion dependent (TD), defined as an average of >2 units per month over 12 wks, or non-TD cohorts]. Primary endpoint: spleen volume response (SVR) for non-TD cohorts or TD to transfusion independence (TI, no transfusion for consecutive 12 wks) conversion for TD cohorts; secondary endpoints: change in total symptom score (TSS) per MFSAF v4.0, patient global impression of change (PGIC), safety and PK; additional endpoints: changes in proinflammatory Ck levels, BM morphology and mutant allele burden.
as §1, with “2=combination add-on treatment of” for “1=monotherapy with”, “already being administered Rux.” for “no longer on Rux and are with refractory, intolerant, or ineligible.”, “cohorts]. The starting dose of Compound 1 was 125 mg daily on days 1-14 of a 21-day cycle in both arms.” for “cohorts].”
The starting dose of Compound 1 was 125 mg given orally, once daily for 2 weeks on/1 week off in a 21-day dosing cycle. Two separate time points for data analysis occurred for at least Arms 1 and 2 and are discussed below: one at approximately 12 weeks of treatment (first assessment of spleen volume by MRI or CT and every 12 weeks thereafter) and another at approximately 24 weeks of treatment (first assessment of bone marrow biopsy and every 24 weeks thereafter). Patients were added to the study following the first time point.
Demographics and results are as follows: At baseline, median age: 69 years (41-88), gender: 28 (58%) male, ECOG <1: 45 (94%) patients, primary MF: 33 (69%) patients, DIPSS score high: 10 (21%) patients, median platelet: 199 x 1091 (77-895), 34 (71%) patients with Hgb <10 g/dL, median spleen volume: 2183 cc (123-3909), median TSS: 17.6 (1.4-56), 46 (96%) patients had ≥1 JAK2/MPL/CALR mutations, and 34 (71%) patients had HMR (high molecular risk) mutations. 33 (69%) patients on treatment for ≥12 wks, 4 on treatment for >18 months.

[2] = tested on: CD34+ cells isolated from the bone marrow of two healthy donors; test: Megakaryocyte differentiation and proliferation, alone and with ruxolitinib, 10 days (FACS); format: cell-based; details: 240 h, 10 days
Source text: The cells were then harvested for FACS analysis with live/dead stain and gating with CD34 (progenitor marker) and CD41a and CD42b (mature megakaryocyte markers).

[3] = Time Point 2, Arms 1 and 2, FIG. 14

Cc1noc2c1-c1ccccc1C(c1ccc(Cl)cc1)=N[C@H]2CC(N)=O [Compound 1, 2-((4S)-6-(4-chlorophenyl)-1-methyl-4H-benzo[c]isoxazolo[4,5-e]azepin-4-yl)acetamide]
most common (≥20%) treatment-emergent adverse events of any Gr ([1]; Time Point 1): diarrhea, nausea, cough and upper respiratory tract infection | ≥3 Gr TEAE anemia ([1]; Time Point 1): 8.3% | patients with improvement in BM fibrosis and/or reticulin by ≥1 Gr ([1]; Time Point 1, 7 of 12 evaluable patients, as early as 6-months): 58% | patients with ≥50% TSS improvement ([1]; Time Point 1, 11 patients): 39% | patients reporting much or very much improved PGIC scores ([1]; Time Point 1, 21 patients): 64% | patients with TSS improvement ([1]; Time Point 1, 26 of 28 patients, FIG. 8 panel B): 93% | patients with PGIC improvement score ([1]; Time Point 1, 28 of 33 patients): 85% | patients with spleen volume reduction ([1]; Time Point 1, 29 of 31 patients, FIG. 8 panel A): 94% | ≥3 Gr TEAE thrombocytopenia ([1]; Time Point 1, asymptomatic, non-cumulative and generally reversible): 8.3% | subjects with bone marrow fibrosis improvement [1, 3]: about 38% | subjects with bone marrow fibrosis improvement as early as 6-months [1, 3]: about 32% | tolerability ([1]; alone or add-on to ruxolitinib): generally well-tolerated | EC50 ([2]; Donor 1, percent of cells double positive for CD41a and CD42b, read-out: Megakaryocyte differentiation EC50): 60 nM | EC50 ([2]; Donor 1, read-out: Megakaryocyte live count EC50): 26 nM | EC50 ([2]; Donor 1, read-out: Total live count EC50): 43 nM | EC50 ([2]; Donor 1, read-out: Viability EC50): 300 nM | EC50 ([2]; Donor 2, percent of cells double positive for CD41a and CD42b, read-out: Megakaryocyte differentiation EC50): 131 nM | EC50 ([2]; Donor 2, read-out: Megakaryocyte live count EC50): 29 nM | EC50 ([2]; Donor 2, read-out: Total live count EC50): 32 nM | EC50 ([2]; Donor 2, read-out: Viability EC50): > 500 nM | EC50 ([2]; Mean of two donors, read-out: Megakaryocyte differentiation EC50): 96 nM | EC50 ([2]; Mean of two donors, read-out: Megakaryocyte live count EC50): 28 nM | EC50 ([2]; Mean of two donors, read-out: Total live count EC50 (overall cell proliferation)): 38 nM | EC50 ([2]; Mean of two donors, read-out: Viability EC50): 400 nM | EC50 ([2]; in the presence of 250 nM ruxolitinib, extrapolated, below the lowest dose tested, read-out: overall cell proliferation mean EC50 in the presence of ruxolitinib): 17 nM
